For series [1], the system named is Murine norovirus strain 1 (MNV-1). It counts as cell-based. Particulars: for Viral Titre after Treatment: titration on RAW 264.7 cells; for Viral Titre after Treatment / LRV (log reduction value): mean ± SD, triplicate. The source says: (§1) Murine norovirus strain 1 (MNV-1) was used as a surrogate for human norovirus (NoV). The virus was replicated in RAW 264.7 cells (murine macrophage cell line) cultured in Dulbecco’s modified Eagle’s medium (DMEM) supplemented with 1% glutamine, 1% non-essential amino acids, and 2% fetal bovine serum (FBS). Hepatitis A virus (HAV) strain HM-175 was replicated in Frp3 cells (non-human primate cell line derived from fetal kidney) cultured in minimum essential medium (MEM) with Earle’s salts supplemented with 1% glutamine, 2% non-essential amino acids, and 2% FBS. Both viruses were incubated in 5% CO2 at 37 °C. All cell culture media were provided by EuroClone (Milan, Italy). The viral suspensions were prepared by freeze and thaw lysis (1 cycle for MNV-1 and 3 cycles for HAV) of infected monolayers, clarified using low-speed centrifugation (800× g) to remove residual cell debris, then divided in aliquots, and stored at −80 °C until use.
(§2) Solutions 40 µM and 80 µM of each peptide of the panel (RiLK1, RiLK3, RiLK30, 1018-K6, MTP1, and AVP2) were chosen for the virucidal tests. HAV and MNV-1 were assayed at a concentration of 4.7 ± 0.2 log TCID50/mL and 4.5 ± 0.2 log TCID50/mL, respectively. The suspensions containing the peptides and viruses were incubated for 1 h at room temperature (RT,20 ± 2 °C) and 4 °C. These temperatures were chosen to simulate the use of sanitizing solutions in food production/processing environments. Residual viral infectivity was evaluated by titration (TCID50/mL) on Frp3 cells for HAV and on RAW 264.7 cells for MNV-1. Untreated HAV and MNV-1 suspensions and 40 µM and 80 µM AMP solutions, incubated at the same conditions, were used as controls. Each treatment condition was assayed in triplicate. For titration, 100 µL of serial tenfold dilutions of each sample were assayed in 24-well tissue culture plates containing 24–48 h cell monolayers and incubated for 1 h in 5% CO2 at 37 °C. After that, the wells were washed twice with 200 µL of PBS, and 500 µL of DMEM/MEM, supplemented with 2% of FBS, were was added to each well; MNV-1 and HAV incubations were carried for up to 6 days and 14 days, respectively, in 5% CO2 at 37 °C with daily visual inspection to determine the cytopathic effect. The virucidal efficacy of AMPs was estimated by comparing the titers of treated and untreated viral suspensions.
(§3) For each treatment, the average and standard deviation of the triplicate analyses were calculated. The virucidal effects of AMPs was assessed by calculating the log reduction value (LRV), i.e., the difference between the infectious titer (log-transformed) of untreated versus treated samples. The statistical significance of differences between treated and untreated samples was determined through one-way analysis of variance (ANOVA) with Bonferroni post hoc comparisons, with a significance level of p < 0.05 (GraphPad Prism v9.5.0, software San Diego, CA, USA).

For series [2], the system named is Hepatitis A virus (HAV) strain HM-175. As to the kind of experiment: Virucidal effect of peptides on HAV (residual infectivity by TCID50 titration on Frp3 cells). Particulars: for Viral Titre after Treatment: titration on Frp3 cells; for Viral Titre after Treatment / LRV (log reduction value): mean ± SD, triplicate. In kind it is cell-based.
Text: as §1, §2, §3

The conditions of series [3]: pH 2; cited from earlier work. The procedure: In this context, to acquire important information on how the conformational properties of peptides might influence the structure–function relationships and their distinct membrane interaction profiles, the propensity of the new peptides, RiLK30 and AVP2, to adopt a defined secondary structure and to undergo conformational changes were examined by circular dichroism and fluorescence spectroscopy. These analyses were performed in the presence of a negatively charged SDS that is commonly used as a biomimetic membrane model to study the structural features of membranotropic molecules. In previous ...

Series [4] is classed as physicochemical. The procedure:
Circular Dichroism (CD) analysis was performed by a Jasco J-810 spectropolarimeter. The samples were loaded into a quartz cuvette of 0.1 cm path length (Hellma Analytics), and the spectra were recorded in the 195–250 nm range at a scan speed of 20 nm/min, averaging 5 scans. CD experiments were carried out in 10 mM Tris-HCl buffer, pH 7.0, as a function of SDS concentrations (3, 50, and 150 mM) at a peptide concentration of 50 µM. The folding kinetic measurements of the peptides were performed after the addition of SDS (50 mM) to each sample (50 µM in 10 mM Tris-HCl, pH 7.0) up to 24 h of incubation. For thermal stability analyses, the peptides were prepared to a final concentration of 50 μM in 10 mM Tris-HCl, pH 7.0, and then they were incubated at 4 and 25 °C up to 48 h before acquiring the CD spectra in the presence of 50 mM SDS. A blank spectrum of a sample containing all components except the peptide was acquired for the baseline correction of the CD spectra of the peptide. The mean residue ellipticity ([θ], deg cm^2 dmol^−1) was obtained by the equation [θ] = 100 θ/cnl, where θ is the ellipticity (mdeg), c is the peptide concentration (mM), n is the number of residues, and l is the path length (cm).
Tryptophan (Trp) fluorescence emission spectra were recorded at 25 °C on a Shimadzu RF-6000 spectrofluorometer (Kyoto, Japan), with both excitation and emission slit widths set at 5 nm. The intrinsic Trp was excited at a wavelength of 280 nm and the emission was monitored between 300 and 400 nm. Fluorescence measurements were carried out in 10 mM Tris-HCl buffer, pH 7.0, as a function of SDS concentrations (3, 50, and 150 mM) at a peptide concentration of 50 µM. The folding kinetic experiments of AVP2 and RiLK30 were performed after the addition of SDS (50 mM) to each sample (50 µM concentration in 10 mM Tris-HCl buffer, pH 7.0) up to 24 h of incubation. The effect of temperature on peptide folding was analyzed by dissolving the peptides at a final concentration of 50 µM in 10 mM Tris-HCl buffer, pH 7.0, and incubating them at 4 and 25 °C up to 48 h. The spectra were recorded in the presence of 50 mM SDS.

Setting [5] is: MNV-1 4.5 ± 0.2 log TCID50/mL + peptide 80 µM, 1 h at 4 °C.
Setting [6] is: MNV-1 + peptide 40 µM, 1 h at 4 °C.
Where [7] appears, read: MNV-1 + peptide 40 µM, 1 h at RT (20 ± 2 °C).
Setting [8] is: MNV-1 + peptide 80 µM, 1 h at 4 °C.
Setting [9] is: MNV-1 + peptide 80 µM, 1 h at RT (20 ± 2 °C).
Where [10] appears, read: HAV 4.7 ± 0.2 log TCID50/mL + peptide 80 µM, 1 h at 4 °C.
Where [11] appears, read: HAV + peptide 40 µM, 1 h at 4 °C.
[12] abbreviates: HAV + peptide 40 µM, 1 h at 4 °C, untreated minus treated titre.
The mark [13] stands for this setting: HAV + peptide 40 µM, 1 h at RT (20 ± 2 °C).
[14] abbreviates: HAV + peptide 80 µM, 1 h at 4 °C, untreated minus treated titre.
Where [15] appears, read: HAV + peptide 80 µM, 1 h at RT (20 ± 2 °C).
The mark [16] stands for this setting: maximum reduction, corresponding to the highest LRV.

The structures appear in SMILES notation. “And” between values parts separate entries of the source, which are not always exact repeats. Identical values can stand only once. Like-named read-outs stand apart in the source and are kept apart here. Where a SMILES comes first, the peptide text is derived from it.

With `CC[C@H](C)[C@H](NC(=O)[C@H](CCCNC(=N)N)NC(=O)[C@@H](NC(=O)[C@H](CCCCN)NC(=O)[C@@H](NC(=O)[C@@H](NC(=O)[C@H](CC(C)C)NC(=O)[C@H](CCCNC(=N)N)NC(=O)[C@@H](N)C(C)C)[C@@H](C)CC)C(C)C)C(C)C)C(=O)N[C@@H](Cc1c[nH]c2ccccc12)C(=O)N[C@@H](CCCNC(=N)N)C(=O)N[C@@H](CCCNC(=N)N)C(N)=O` [1018-K6] (H-VRLIVKVRIWRR-NH2; N-terminus assumed), the “virucidal activity toward MNV-1 (in words)” value in series [1] (40 and 80 µM, 4 °C and RT) is listed as “no significant effects”. Moreover, the “Viral Titre after Treatment” value turned out to be 4.3 ± 0.2 logTCID50/mL in series [1] (setting [5]); 4.5 ± 0.1 logTCID50/mL in series [1] (setting [6]); 4.5 ± 0.2 logTCID50/mL in series [1] (setting [7]); 4.3 ± 0.2 logTCID50/mL in series [1] (setting [9]); 3.3 ± 0.2 logTCID50/mL in series [2] (setting [10]); 3.4 ± 0.1 logTCID50/mL in series [2] (setting [11]). The “Viral Titre after Treatment” value in series [2] (setting [13]) and in series [2] (setting [15]) was 3.3 ± 0.2 logTCID50/mL each time. Also, the “LRV (log reduction value)” value in series [1] (setting [6]) is 0 ± 0.3 logTCID50/mL; in series [1] (setting [7]), 0 ± 0.4 logTCID50/mL; in series [1] (setting [8]), 0.2 ± 0.4 logTCID50/mL; in series [1] (setting [9]) it was 0.2 ± 0.4 logTCID50/mL; in series [2] (setting [12]), 1.3 ± 0.3 logTCID50/mL; in series [2] (setting [13]) it was 1.4 ± 0.4 logTCID50/mL. Also, the “LRV (log reduction value)” value in series [2] (setting [14]) and in series [2] (setting [15]) was 1.4 ± 0.4 logTCID50/mL throughout. The “decrease of HAV infectious titer” value in series [2] (setting [16]) is listed as “up to 96.7%”. Besides, in series [2] (text summary over 40 µM and 80 µM and the two temperatures (4 °C, RT)), the “infectivity reduction on HAV” value is given as 1.3–1.4 log. Moreover, the structural stability entry in series [3] is “high structural stability”.

For the compound `CC[C@H](C)[C@H](NC(=O)[C@H](Cc1cnc[nH]1)NC(=O)[C@H](CCCCN)NC(=O)[C@@H](NC(=O)[C@@H](NC(=O)[C@H](CC(=O)O)NC(=O)[C@H](Cc1ccccc1)NC(=O)[C@H](Cc1c[nH]c2ccccc12)NC(=O)CN)C(C)C)C(C)C)C(=O)N[C@@H](C)C(=O)N[C@@H](CCCCN)C(=O)N[C@@H](CCCNC(=N)N)C(=O)N[C@@H](Cc1ccccc1)C(N)=O` [AVP2, reference compound] (H-GWFDVVKHIAKRF-NH2), in series [4] (pH 7), the “thermal (conformational) stability in SDS micellar solution” value is on record as “at least 48 h”.

As for `CC[C@H](C)[C@H](NC(=O)[C@H](Cc1c[nH]cn1)NC(=O)[C@H](CCCCN)NC(=O)[C@@H](NC(=O)[C@@H](NC(=O)[C@H](CC(=O)O)NC(=O)[C@H](Cc1ccccc1)NC(=O)[C@H](Cc1c[nH]c2ccccc12)NC(=O)CN)C(C)C)C(C)C)C(=O)N[C@@H](C)C(=O)N[C@@H](CCCCN)C(=O)N[C@@H](CCCNC(=N)N)C(=O)N[C@@H](Cc1ccccc1)C(N)=O` [AVP2, reference compound] (H-GWFDVVKHIAKRF-NH2; N-terminus assumed), the “Viral Titre after Treatment” value stood at 3.6 ± 0.1 logTCID50/mL in series [1] (setting [5]); 3.6 ± 0.1 logTCID50/mL in series [1] (setting [6]); 3.6 ± 0.1 logTCID50/mL in series [1] (setting [7]); 3.5 ± 0.1 logTCID50/mL in series [1] (setting [9]); 4.3 ± 0.2 logTCID50/mL in series [2] (setting [10]); 4.3 ± 0.2 logTCID50/mL in series [2] (setting [11]). For the same compound, the “Viral Titre after Treatment” value is recorded as 4.3 ± 0.2 logTCID50/mL in series [2] (setting [13]) and 4.0 ± 0.3 logTCID50/mL in series [2] (setting [15]). The “LRV (log reduction value)” value is 0.9 ± 0.3 logTCID50/mL in series [1] (setting [6]); 0.9 ± 0.3 logTCID50/mL in series [1] (setting [7]); 0.9 ± 0.3 logTCID50/mL in series [1] (setting [8]); 1.0 ± 0.3 logTCID50/mL in series [1] (setting [9]); 0.4 ± 0.4 logTCID50/mL in series [2] (setting [12]); 0.4 ± 0.4 logTCID50/mL in series [2] (setting [13]). Moreover, the figures for the “LRV (log reduction value)” value in series [2] (setting [14]) and in series [2] (setting [15]) were 0.4 ± 0.4 logTCID50/mL and 0.7 ± 0.5 logTCID50/mL, respectively. The “LRV against MNV-1” value in series [1] (at both temperatures (4 °C, RT)) is 0.9 log and 1.0 log. Further, the “reduction of MNV-1 infectivity” value in series [1] (setting [16]) is on record as “up to 91.3%”. Besides, in series [2] (40 and 80 µM, 4 °C and RT), the “virucidal activity toward HAV (in words)” value is “limited reduction in infectivity”. In addition, the “conformational rearrangement over time (CD and fluorescence spectra)” value in series [4] (peptide 50 µM, 10 mM Tris-HCl pH 7.0, SDS 50 mM, 24 h incubation at 37 °C (legend: 25 °C)) is “did not appear to undergo significant changes”.

The values are drawn from publication PMC11124387, “A Reliable Multifaceted Solution against Foodborne Viral Infections: The Case of RiLK1 Decapeptide” (Molecules, 2024).
